Assay results as given in patent US20030068383A1, “Time release nutritional supplement” (priority 2001, published 2003).

Assays:
[1] = Acid damage to Ribose loaded into 1% cross-linked resin with boiling water; format: physicochemical; settings: 5.9 grams Ribose
[2] = ingested dose, human body; cited from earlier work

Row | SMILES | Fate of Ribose within the resin matrix ([1]; 2 grams 1% cross-linked sulfonated resin, 10 grams water preheated to boiling) | Fate of Ribose within the resin matrix ([1]; 2 grams sulfonated resin ion exchanged with Li or K salt, 10 grams water) | Dose typically associated with side effects (diarrhea, gas, flatulence, nausea, stomach cramps) [2]
1 | O=C[C@H](O)[C@H](O)[C@H](O)CO [Ribose, D-Ribose] | destroyed | active and useful | –
2 | CN(CC(=O)O)C(=N)N [creatine, Creatine] | – | – | over 5 grams
